Test [1] concerns the target T1, FPR2 (Homo sapiens (Human), UniProt P25090). Briefly: FPR2 Ga16-CHO EC50 (efficacy), Tables 1-3. It is filed as cell-based. The settings on record: for FPR2 Ga16-CHO (efficacy): efficacy in parentheses.
The target of test [2] is T1, FPR2. Briefly: FLIPR Ca+2 response, HEK-Gα16 cells stably expressing the human FPR2 receptor (Table 4). Type of test: cell-based. The following applies: for FPR2 (efficacy): efficacy in parentheses. The method in brief:
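HEK-Gα16 cells stably expressing human FPR2, loaded with 2 μM Fluo-4 in HBSS/20 mM HEPES for 40 min at 37° C., then washed. Ligands added in HBSS/Hepes and Ca+2 responses recorded on FLIPR in relative fluorescence units.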

T1 sequence (P25090 whole entry): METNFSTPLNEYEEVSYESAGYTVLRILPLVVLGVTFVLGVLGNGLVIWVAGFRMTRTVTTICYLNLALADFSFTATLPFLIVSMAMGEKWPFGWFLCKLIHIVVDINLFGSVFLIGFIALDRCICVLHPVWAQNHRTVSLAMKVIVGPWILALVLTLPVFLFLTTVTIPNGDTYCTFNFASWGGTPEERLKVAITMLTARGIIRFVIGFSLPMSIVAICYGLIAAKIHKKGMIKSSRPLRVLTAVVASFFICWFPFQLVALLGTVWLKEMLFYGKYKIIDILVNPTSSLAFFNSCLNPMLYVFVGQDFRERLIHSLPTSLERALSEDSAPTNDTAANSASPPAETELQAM

Usually EC50 stands for the midpoint of the concentration-response curve. Lower therefore signals an effect from little substance. For `CC1(CCc2ccccc2)NC(=O)N(NC(=O)Nc2ccccc2F)C1=O` (stereo not shown) [1-(2-fluorophenyl)-3-[4-methyl-2,5-dioxo-4-(2-phenylethyl)imidazolidin-1-yl]urea], at FPR2 [1], it took 258 nM to reach a half-maximal effect (EC50) and the “FPR2 Ga16-CHO (efficacy)” value is listed as “nM (0.94)”.

For `O=C(Nc1ccc(Cl)cc1)NN1C(=O)NC2(CCCCC2)C1=O` [1-(4-chlorophenyl)-3-(2,4-dioxo-1,3-diazaspiro[4,5]decan-3-yl) urea], at FPR2 [1], the EC50 stood at 49 nM and the “FPR2 Ga16-CHO (efficacy)” value is “nM (0.98)”.

Take `CCC1(C)NC(=O)N(NC(=O)Nc2ccc(Cl)cc2)C1=O` (stereo not shown) [1-(4-chlorophenyl)-3-(4-ethyl-4-methyl-2,5-dioxoimidazolidin-1-yl)urea]: at FPR2 [1], the EC50 was found to be 157 nM and the “FPR2 Ga16-CHO (efficacy)” value is “nM (0.96)”.

In the case of `Cc1ccc(NC(=O)NN2C(=O)NC3(CCC(C)CC3)C2=O)cc1` (stereo not shown) [1-(8-methyl-2,4-dioxo-1,3-diazaspiro[4,5]decan-3-yl)-3-(p-tolypurea], on FPR2 [1], it took 363 nM to reach a half-maximal effect (EC50) and the “FPR2 Ga16-CHO (efficacy)” value was “nM (0.91)”.

For the compound `CC1(CCc2ccccc2)NC(=O)N(NC(=O)Nc2ccccc2)C1=O` (stereo not shown) [1-[4-methyl-2,5-dioxo-4-(2-phenylethyl)imidazolidin-1-yl]-3-phenylurea], at FPR2 [1], the response was half-maximal at 223 nM (EC50) and the “FPR2 Ga16-CHO (efficacy)” value is listed as “nM (1.0)”.

For `CCC1(CC)NC(=O)N(CC(=O)Nc2ccc(F)cc2)C1=O` [2-(4,4-diethyl-2,5-dioxoimidazolidin-1-yl)-N-(4-fluorophenyl)acetamide], at FPR2 [1], the EC50 worked out at 2770 nM and the “FPR2 Ga16-CHO (efficacy)” value is listed as “nM (0.67)”.

On to `COc1ccc(NC(=O)NC(Cc2ccccc2)C(=O)O)cc1OC` (stereo not shown) [2-({[(3,4-dimethoxyphenyl)amino]carbonyl}amino)-3-phenylpropanoic acid], for which, at FPR2 [1], the midpoint of the response, the EC50, lay at 2790 nM and the “FPR2 Ga16-CHO (efficacy)” value was “nM (0.72)”.

`O=C(Nc1ccc(Br)cc1)NC(Cc1c[nH]c2ccccc12)C(=O)O` (stereo not shown) [2-({[(4-bromophenyl)amino]carbonyl}amino)-3-(1H-indol-3-yl)propanoic acid]: on FPR2 [1], the 50% effective concentration (EC50) is 67 nM and the “FPR2 Ga16-CHO (efficacy)” value is recorded as “nM (0.89)”.

Turning to `O=C(Nc1ccc(Cl)cc1)NC(Cc1ccccc1)C(=O)O` (stereo not shown) [2-({[(4-chlorophenyl)amino]carbonyl}amino)-3-phenylpropanoic acid], on FPR2 [1], the EC50 worked out at 110 nM and the “FPR2 Ga16-CHO (efficacy)” value is on record as “nM (1.0)”.

With `O=C(Nc1ccc(OC(F)(F)F)cc1)NC(Cc1ccccc1)C(=O)O` (stereo not shown) [3-phenyl-2-[({[4-(trifluoromethoxy)phenyl]amino}carbonyl)amino]propanoic acid], on FPR2 [1], the concentration giving a half-maximal response (EC50) stood at 1570 nM and the “FPR2 Ga16-CHO (efficacy)” value is recorded as “nM (0.79)”.

Take `O=C(Nc1cccnc1)NC(Cc1ccccc1)C(=O)O` (stereo not shown) [3-phenyl-2-{[(pyridin-3-ylamino)carbonyl]amino}propanoic acid]: at FPR2 [1], the half-maximal effective concentration (EC50) is over 10000 nM.

Consider `O=C(Nc1ccc(Br)cc1)N[C@H](Cc1ccccc1)C(=O)O` [(2R)-2-({[(4-bromophenyl)amino]carbonyl}amino)-3-phenylpropanoic acid], for which, on FPR2 [1], it took 1820 nM to reach a half-maximal effect (EC50) and the “FPR2 Ga16-CHO (efficacy)” value is “nM (0.99)”.

For the compound `O=C(Nc1ccc(Cl)c(Cl)c1)N[C@@H](Cc1ccccc1)C(=O)O` [(2S)-2-({[(3,4-dichlorophenyl)amino]carbonyl}amino)-3-phenylpropanoic acid], at FPR2 [1], the “FPR2 Ga16-CHO (efficacy)” value is listed as “μM (0.57)”.

`CC(C)[C@H](NC(=O)Nc1ccc(Br)cc1F)C(=O)O` [(2S)-2-({[(4-bromo-2-fluorophenyl)amino]carbonyl}amino)-3-methylbutanoic acid]: at FPR2 [1], a half-maximal effect (EC50) was put at 152 nM and the “FPR2 Ga16-CHO (efficacy)” value was “nM (0.91)”.

Regarding `CC(C)[C@H](NC(=O)Nc1ccc(Br)cc1)C(=O)O` [(2S)-2-({[(4-bromophenyl)amino]carbonyl}amino)-3-methylbutanoic acid], at FPR2 [1], the EC50 worked out at 72 nM and the “FPR2 Ga16-CHO (efficacy)” value is given as “nM (0.91)”.

Regarding `O=C(Nc1ccc(Br)cc1)N[C@@H](Cc1ccccc1)C(=O)O` [(2S)-2-({[(4-bromophenyl)amino]carbonyl}amino)-3-phenylpropanoic acid], on FPR2 [1], the EC50 worked out at 31 nM and the “FPR2 Ga16-CHO (efficacy)” value is “nM (1.0)”.

Turning to `COc1ccc(NC(=O)N[C@@H](Cc2ccccc2)C(=O)O)cc1` [(2S)-2-({[(4-methoxyphenyl)amino]carbonyl}amino)-3-phenylpropanoic acid], on FPR2 [1], the EC50 came out at 1750 nM and the “FPR2 Ga16-CHO (efficacy)” value was “nM (0.90)”.

Regarding `O=C(Nc1ccc([N+](=O)[O-])cc1)N[C@@H](Cc1ccccc1)C(=O)O` [(2S)-2-({[(4-nitrophenyl)amino]carbonyl}amino)-3-phenylpropanoic acid], the “FPR2 Ga16-CHO (efficacy)” value at FPR2 [1] is “nM (0.82)”.

With `O=C(Nc1ccc(C(F)(F)F)cc1)N[C@@H](Cc1ccccc1)C(=O)O` [(2S)-3-phenyl-2-[({[4-(trifluoromethyl)phenyl]amino}carbonyl)amino]propanoic acid], at FPR2 [1], it took 120 nM to reach a half-maximal effect (EC50) and the “FPR2 Ga16-CHO (efficacy)” value is “nM (0.97)”.

Regarding `O=C(Nc1ccc(Br)cc1)N[C@H](C(=O)O)c1ccccc1` [(2S)-({[(4-bromophenyl)amino]carbonyl}amino) (phenyl)acetic acid], at FPR2 [1], the EC50 turned out to be 25.8 nM and the “FPR2 Ga16-CHO (efficacy)” value is reported as “nM (0.94)”.

As to `O=C(O)CNC(=O)C(Cc1c[nH]c2ccccc12)NC(=O)Nc1ccc(Br)cc1` (stereo not shown) [Compound 150, {[2-{[(4-bromophenyl)carbamoyl]amino}-3-(1H-indol-3-yl)propanoyl]amino}acetic acid], at FPR2 [2], the EC50 came to 1.4 nM and the “FPR2 (efficacy)” value is on record as “nM (0.98)”.

As for `CC(C)C1(CCc2ccccc2C(=O)O)NC(=O)N(NC(=O)Nc2ccc(Br)cc2)C1=O` (stereo not shown) [Compound 151, 2-{2-[1-{[(4-bromophenyl)carbamoyl]amino}-2,5-dioxo-4-(propan-2-yl)imidazolidin-4-yl]ethyl}benzoic acid], on FPR2 [2], the response was half-maximal at 5.8 nM (EC50) and the “FPR2 (efficacy)” value is reported as “nM (1.0)”.

Consider `CCOP(=O)(CCNC(=O)CC1(C(C)C)NC(=O)N(NC(=O)Nc2ccc(Br)cc2)C1=O)OCC` (stereo not shown) [Compound 152, diethyl [2-({[1-{[(4-bromophenyl)carbamoyl]amino}-2,5-dioxo-4-(propan-2-yl)imidazolidin-4-yl]acetyl}amino)ethyl] phosphonate], for which, at FPR2 [2], the EC50 came out at 11 nM and the “FPR2 (efficacy)” value is listed as “nM (1.0)”.

Turning to `CCOC(=O)C1CCC2(CC1)NC(=O)N(NC(=O)Nc1ccc(Br)cc1)C2=O` (stereo not shown) [Compound 153, ethyl 3-{[(4-bromophenyl)carbamoyl]amino}-2,4-dioxo-1,3-diazaspiro[4.5]decane-8-carboxylate], on FPR2 [2], the EC50 came to 12 nM and the “FPR2 (efficacy)” value is recorded as “nM (0.99)”.

Take `CC(C)C[C@H](NC(=O)Nc1ccc(Br)cc1)C(=O)N(C)CC(=O)OC(C)(C)C` [Compound 154, tert-butyl {[(2S)-2-{[(4-bromophenyl)carbamoyl]amino}-4-methylpentanoyl](methyl)amino} acetate]: at FPR2 [2], a half-maximal effect (EC50) was put at 12 nM and the “FPR2 (efficacy)” value is listed as “nM (0.85)”.

As for `CC(C)C[C@H](NC(=O)Nc1ccc(Br)cc1)C(=O)N(C)CC(=O)O` [Compound 155, {[(2S)-2-{[(4-bromophenyl)carbamoyl]amino}-4-methylpentanoyl](methyl)amino} acetic acid], on FPR2 [2], the EC50 came out at 1 nM and the “FPR2 (efficacy)” value is “nM (1.0)”.

As for `CC(C)C[C@H](NC(=O)Nc1ccc(C(F)(F)F)cc1)C(=O)NCS(=O)(=O)O` [Compound 237, {[(2S)-4-methyl-2-({[4-(trifluoromethyl)phenyl]carbamoyl}amino)pentanoyl]amino} methanesulfonic acid], at FPR2 [2], the EC50 came to 1.9 nM and the “FPR2 (efficacy)” value is listed as “nM (0.99)”.

For the compound `O=C(CN1C(=O)C2CC=CCC2C1=O)Nc1ccc(Br)cc1` (stereo not shown) [N-(4-bromophenyl)-1,3,3a,4,7,7a-hexahydro-1,3-dioxo-2H-isoindole-2-acetamide], at FPR2 [1], the “FPR2 Ga16-CHO (efficacy)” value was “(0.98)”.

Regarding `O=C(CN1C(=O)C2C3C=CC(C3)C2C1=O)Nc1ccc(Br)cc1` (stereo not shown) [N-(4-bromophenyl)-1,3,3a,4,7,7a-hexahydro-1,3-dioxo-4,7-methano-2H-isoindole-2-acetamide], the “FPR2 Ga16-CHO (efficacy)” value at FPR2 [1] is listed as “(0.90)”.

Take `O=C(CN1C(=O)NC2(CCCC2)C1=O)Nc1ccc(Br)cc1` [N-(4-bromophenyl)-2-(2,4-dioxo-1,3-diazaspiro[4.4]non-3-yl)acetamide]: at FPR2 [1], the EC50 was 322 nM and the “FPR2 Ga16-CHO (efficacy)” value is given as “nM (0.96)”.

As for `O=C(CN1C(=O)NC2(CCCCC2)C1=O)Nc1ccc(Br)cc1` [N-(4-bromophenyl)-2-(2,4-dioxo-1,3-diazaspiro[4.5]dec-3-yl)acetamide], on FPR2 [1], a half-maximal response (EC50) required 738 nM and the “FPR2 Ga16-CHO (efficacy)” value was “nM (0.89)”.

In the case of `O=C(CN1C(=O)NC2(CCCCCC2)C1=O)Nc1ccc(Br)cc1` [N-(4-bromophenyl)-2-(2,4-dioxo-1,3-diazaspiro[4.6]undec-3-yl)acetamide], at FPR2 [1], the EC50 was 679 nM and the “FPR2 Ga16-CHO (efficacy)” value was “nM (0.96)”.

Consider `CCCC1(CCC)NC(=O)N(CC(=O)Nc2ccc(Br)cc2)C1=O` [N-(4-bromophenyl)-2-(2,5-dioxo-4,4-dipropylimidazolidin-1-yl)acetamide], for which, at FPR2 [1], a half-maximal response (EC50) required 645 nM and the “FPR2 Ga16-CHO (efficacy)” value is “nM (0.98)”.

As for `CCC1(CC)NC(=O)N(CC(=O)Nc2ccc(Br)cc2)C1=O` [N-(4-bromophenyl)-2-(4,4-diethyl-2,5-dioxoimidazolidin-1-yl)acetamide], on FPR2 [1], it took 96 nM to reach a half-maximal effect (EC50) and the “FPR2 Ga16-CHO (efficacy)” value is “nM (0.98)”.

With `CC1(C)NC(=O)N(CC(=O)Nc2ccc(Br)cc2)C1=O` [N-(4-bromophenyl)-2-(4,4-dimethyl-2,5-dioxoimidazolidin-1-yl)acetamide], on FPR2 [1], the EC50 worked out at 719 nM and the “FPR2 Ga16-CHO (efficacy)” value is “nM (0.94)”.

As for `CC1(C2CC2)NC(=O)N(CC(=O)Nc2ccc(Br)cc2)C1=O` (stereo not shown) [N-(4-bromophenyl)-2-(4-cyclopropyl-4-methyl-2,5-dioxoimidazolidin-1-yl)acetamide], at FPR2 [1], the response was half-maximal at 166 nM (EC50) and the “FPR2 Ga16-CHO (efficacy)” value was “nM (0.84)”.
